Activity calls are given as the source filed them. No cut-off for these calls is given here.

This note sets out measurements from ChEMBL document CHEMBL4190322, “Structure-based development of novel triazoles and related thiazolotriazoles as anticancer agents and Cdc25A/B phosphatase inhibitors. Synthesis, in vitro biological evaluation, molecular docking and in silico ADME-T studies” (Eur J Med Chem, 2017).

Data set [1] relates to OVCAR-8. Put plainly: Growth inhibition of human OVCAR8 cells at 10 uM after 48 hrs by SRB assay relative to control. The note with it: for inhibition of growth at 10 µM: OVCAR-8, 48 h, read-out: GI. The class given is functional. For orientation: In SRB staining, fixed cells bind dye roughly in proportion to their protein.
The test system of data set [2] is 786-0. The data set can be described thus: Growth inhibition of human 786-0 cells at 10 uM after 48 hrs by SRB assay relative to control. In kind it is functional. The settings on record: for inhibition of growth at 10 µM: 786-0, 48 h, read-out: GI.
Data set [3] has as its system HOP-62. The data set can be described thus: Growth inhibition of human HOP62 cells at 10 uM after 48 hrs by SRB assay relative to control. In kind it is functional. The settings on record: HOP-62, 48 h, read-out: GI.
Data set [4] concerns NCI/ADR-RES. The data set can be described thus: Growth inhibition of human NCI/ADR-RES cells at 10 uM after 48 hrs by SRB assay relative to control. In kind it is functional. The settings on record: read-out: GI.
The subject of data set [5] is NCI-H23. Put plainly: Growth inhibition of human NCI-H23 cells at 10 uM after 48 hrs by SRB assay relative to control. The note with it: NCI-H23, 48 h, read-out: GI. In kind it is functional.
In data set [6] the test system is MDA-MB-468. The data set can be described thus: Growth inhibition of human MDA-MB-468 cells at 10 uM after 48 hrs by SRB assay relative to control. In kind it is functional. The settings on record: for inhibition of growth at 10 µM: MDA-MB-468, 48 h, read-out: GI.
The test system of data set [7] is CAKI-1. Put plainly: Growth inhibition of human Caki1 cells at 10 uM after 48 hrs by SRB assay relative to control. The class given is functional. The settings on record: CAKI-1, 48 h, read-out: GI.
Data set [8] has as its system RPMI-8226. The data set can be described thus: Growth inhibition of human RPMI8226 cells at 10 uM after 48 hrs by SRB assay relative to control. In kind it is functional. The note with it: RPMI-8226, 48 h, read-out: GI.
For data set [9], the system named is UO-31. Put plainly: Growth inhibition of human UO31 cells at 10 uM after 48 hrs by SRB assay relative to control. In kind it is functional. The note with it: UO-31, 48 h, read-out: GI.
The test system of data set [10] is KM12. Put plainly: Growth inhibition of human KM12 cells at 10 uM after 48 hrs by SRB assay relative to control. The class given is functional. The settings on record: KM12, 48 h, read-out: GI.
The test system of data set [11] is SF-268. Put plainly: Growth inhibition of human SF268 cells at 10 uM after 48 hrs by SRB assay relative to control. In kind it is functional. The note with it: SF-268, 48 h, read-out: GI.
Data set [12] concerns HCT-116. The data set can be described thus: Growth inhibition of human HCT116 cells at 10 uM after 48 hrs by SRB assay relative to control. In kind it is functional. The settings on record: for inhibition of growth at 10 µM: HCT-116, 48 h, read-out: GI.
In data set [13] the test system is HOP-92. Put plainly: Growth inhibition of human HOP92 cells at 10 uM after 48 hrs by SRB assay relative to control. The class given is functional. The settings on record: HOP-92, 48 h, read-out: GI.
The test system of data set [14] is MCF7. Put plainly: Growth inhibition of human MCF7 cells at 10 uM after 48 hrs by SRB assay relative to control. The class given is functional. The note with it: MCF7, 48 h, read-out: GI.
Data set [15] has as its system HT-29. The data set can be described thus: Growth inhibition of human HT-29 cells at 10 uM after 48 hrs by SRB assay relative to control. In kind it is functional. The settings on record: HT-29, 48 h, read-out: GI.
Data set [16] can be described thus: Cytotoxicity against human MCF10A cells after 24 hrs by MTT assay. In kind it is cell-based, MCF-10A. The note with it: read-out: LC50. A general note: Tetrazolium assays rely on reduction of a dye to a coloured formazan, in cell work by metabolically active cells.
For data set [17], the system named is A549. Put plainly: Growth inhibition of human A549 cells at 10 uM after 48 hrs by SRB assay relative to control. The class given is functional. The settings on record: for inhibition of growth at 10 µM: A549, 48 h, read-out: GI.

As for `COc1ccc(Cc2nnc(SCC(=O)Nc3ccc(Cl)cc3)n2-c2ccccc2)cc1`, the “growth inhibition (GI)” value in [1], in data set [2], in [6] and in data set [17] was “inactive” each time. Moreover, the inhibition of growth at 10 µM in [3] came to 8.3%; in [4], 11.4%; in data set [5], 8.87%; in data set [7] it was 13.7%; in data set [8], 20.6%; in [9], 27.2%. Further, the inhibition of growth at 10 µM in [10] is 14.5%; in data set [11], 12.6%; in data set [12], 2%; in [13], 30%; in data set [14], 4.1%; in [15], 2.73%. Further, in [16], the CC50 at 24 h is greater than 100 µM.

Turning to `COc1ccc(Cc2nnc(SCC(=O)c3ccc(Cl)cc3)n2Cc2ccccc2)cc1`, the inhibition of growth at 10 µM in data set [1] was 10%; in [2], 3.19%; in data set [3] it was 11.2%; in data set [4], 21.5%; in data set [5], 13.6%; in [6], 16%. Also, the inhibition of growth at 10 µM worked out at 23.7% in data set [7]; 26.4% in data set [8]; 34.7% in data set [9]; 10% in [10]; 11.8% in [11]; 11.6% in data set [12]. Also, the inhibition of growth at 10 µM in data set [13] turned out to be 39.3%; in data set [14], 10%; in data set [15], 3%; in data set [17], 16.5%. In data set [16], the CC50 at 24 h was greater than 100 µM.

`COc1ccc(Cc2nnc(SCC(=O)c3ccc(Cl)cc3)n2-c2ccc(C)cc2)cc1`: the inhibition of growth at 10 µM in [1] was 1.7%; in data set [3], 11.7%; in data set [4] it was 12%; in data set [5], 5.6%; in data set [6], 11%; in [7], 6.12%. For the same compound, the inhibition of growth at 10 µM in data set [8] was determined as 25%; in data set [9] it was 14%; in data set [10], 7.12%; in [11], 1.22%; in data set [13], 36.9%; in [14] it was 8.76%. Besides, the inhibition of growth at 10 µM in data set [15] worked out at 4.07%; in [17] it was 4.54%. The “growth inhibition (GI)” value in data set [2] and in data set [12] was “inactive” throughout. In addition, the CC50 at 24 h in [16] is greater than 100 µM.

Regarding `COc1ccc(Cc2nnc(SCC(=O)Nc3ccc(Cl)cc3)n2Cc2ccccc2)cc1`, the “growth inhibition (GI)” value in [1] and in data set [6] was “inactive” throughout. Besides, the inhibition of growth at 10 µM in [2] was 11.4%; in data set [3] it was 12%; in data set [4], 14.3%; in data set [5] it was 9%; in data set [7] it was 21.4%; in data set [8], 22.5%. Further, the inhibition of growth at 10 µM in data set [9] is 31.7%; in data set [10], 16.7%; in data set [11], 12%; in data set [12], 11%; in [13], 29.8%; in [14], 11.1%. Moreover, the values for the inhibition of growth at 10 µM in data set [15] and in data set [17] were 10% and 1.05%, respectively. Further, the CC50 at 24 h in data set [16] is greater than 100 µM.

For `COc1ccc(Cc2nnc(SCC(=O)c3ccc(Cl)cc3)n2-c2ccccc2)cc1`, the “growth inhibition (GI)” value in data set [1] and in data set [12] was “inactive” each time. Further, the inhibition of growth at 10 µM in [2] came out at 7.77%; in data set [3], 1.26%; in data set [4], 10.3%; in [5], 8.1%; in data set [6], 8.55%; in [7], 13.5%. Moreover, the inhibition of growth at 10 µM stood at 13.7% in [8]; 20.1% in data set [9]; 5.87% in [10]; 3.38% in data set [11]; 24.1% in [13]; 6.26% in [14]. Moreover, the inhibition of growth at 10 µM in [15] was 2.08%; in data set [17], 4.57%. In data set [16], the CC50 at 24 h was greater than 100 µM.
